Measured values published in ChEMBL document CHEMBL4483862, “Open-source discovery of chemical leads for next-generation chemoprotective antimalarials” (2018).
pIC50: −log10 of the molar value.

Tested on: Plasmodium berghei
Experiment: Luciferase/luciferin-expressing antifolate-resistant parasites were used to infect a culture of HepG2 cells that were pre-incubated with compounds. Infected hepatocytes emit light due to the luciferase reaction. Assay results are presented as the percent inhibition of light emission compared to control. […]
Type: functional
Conditions: sporozoite; for IC90: read-out: LUCIFERASE INFECTION ASSAY - IC90

SMILES | IC90 [µM] | further results
COCCCN=C(S)NNC(=O)c1ccc(C(C)(C)C)cc1 | > 10.2 | pIC50 (PBLUC_HILL_SLOPE 2.41, PBLUC_R_SQUARED 0.0684, read-out: LUCIFERASE INFECTION ASSAY - IC50): 5.06
CCC(C)(C)c1ccc(Oc2ccc(NC(=O)COC(=O)C3=COCCO3)cc2)cc1 | > 10 | pIC50 (PBLUC_HILL_SLOPE 2.38, PBLUC_R_SQUARED 0.497, read-out: LUCIFERASE INFECTION ASSAY - IC50): 5.24
Cc1cc(C(=O)COC(=O)c2ccccc2O)c(C)n1CC1CCCO1 (stereo not given) | 7.71 | pIC50 (PBLUC_HILL_SLOPE 2.39, PBLUC_R_SQUARED 0.567, read-out: LUCIFERASE INFECTION ASSAY - IC50): 5.51
O=C(O)c1cnc2cc3c(cc2c1O)OCCO3 | > 10 | pIC50 (PBLUC_HILL_SLOPE 2.36, 2.10, PBLUC_R_SQUARED 0.249, 0.136, read-out: LUCIFERASE INFECTION ASSAY - IC50): 5.10
Cc1cc(C(C)(C)C)cc(C)c1CCNC(=O)NCCNC(=O)c1ccco1 | > 10 | pIC50 (PBLUC_HILL_SLOPE 2.38, PBLUC_R_SQUARED 0.642, read-out: LUCIFERASE INFECTION ASSAY - IC50): 5.25
CC(c1ccc(-n2cncn2)cc1)N(C)S(=O)(=O)N1CCc2ccccc2C1 (stereo not given) | > 10 | pIC50 (PBLUC_HILL_SLOPE 2.44, PBLUC_R_SQUARED 0.756, read-out: LUCIFERASE INFECTION ASSAY - IC50): 5.20
COc1cccc(-c2nc3ccnc(NCCc4ccccc4)c3[nH]2)c1 | 7.63 | pIC50 (PBLUC_HILL_SLOPE 2.45, PBLUC_R_SQUARED 0.513, read-out: LUCIFERASE INFECTION ASSAY - IC50): 5.51
Cc1oc2c(c1C(=O)N1CCN(c3ccc(F)cc3)CC1)C(=O)c1ccccc1C2=O | > 10 | pIC50 (PBLUC_HILL_SLOPE 2.38, PBLUC_R_SQUARED 0.395, read-out: LUCIFERASE INFECTION ASSAY - IC50): 5.38
CN1CCN(c2ccc(-c3cn4c(-c5cccc(OC(F)(F)F)c5)cnc4cn3)cn2)CC1 | > 7.26 | pIC50 (PBLUC_HILL_SLOPE 2.39, PBLUC_R_SQUARED 0.449, read-out: LUCIFERASE INFECTION ASSAY - IC50): 5.22
O=C(Cn1cc(C(F)(F)F)ccc1=O)N/N=C/c1c2ccccc2cc2ccccc12 | > 10 | pIC50 (PBLUC_HILL_SLOPE 2.42, PBLUC_R_SQUARED 0.423, read-out: LUCIFERASE INFECTION ASSAY - IC50): 5.29
C/C(=N\n1c(-c2ccc(OC(F)F)cc2)cs/c1=N\CCc1ccccc1)c1ccc2c(c1)OCO2 | > 10 | pIC50 (PBLUC_HILL_SLOPE 2.39, PBLUC_R_SQUARED 0.524, read-out: LUCIFERASE INFECTION ASSAY - IC50): 5.04
Cc1ccc(C)n1-c1nc2cc(C(=O)NC3CC3)ccc2s1 | 7.33 | pIC50 (PBLUC_HILL_SLOPE 2.39, PBLUC_R_SQUARED 0.619, read-out: LUCIFERASE INFECTION ASSAY - IC50): 5.53
COc1ccc(S(=O)(=O)N2[C@@H]3CC[C@@H](C3)[C@H]2c2nc3c(OCC4CCOCC4)cccc3[nH]2)c(OC)c1 | > 10 | pIC50 (PBLUC_HILL_SLOPE 2.43, PBLUC_R_SQUARED 0.162, read-out: LUCIFERASE INFECTION ASSAY - IC50): 5.09
Cc1nc(C(=O)N2CCc3c(c(C(=O)NC4CCCC4)nn3CC(C)C)C2)cs1 | 2.9 | pIC50 (PBLUC_HILL_SLOPE 2.42, PBLUC_R_SQUARED 0.681, read-out: LUCIFERASE INFECTION ASSAY - IC50): 5.93
COc1ccc(C2CC(C)=NN2c2nc(-c3ccc(F)cc3)cs2)cc1OC (stereo not given) | > 8.3 | pIC50 (PBLUC_HILL_SLOPE 2.46, PBLUC_R_SQUARED 0.655, read-out: LUCIFERASE INFECTION ASSAY - IC50): 5.34
N=C(Nc1cc(Cl)cc(Cl)c1)Nc1ncc(C(=O)c2ccccc2O)cn1 | > 10 | pIC50 (PBLUC_HILL_SLOPE 2.46, PBLUC_R_SQUARED 0.348, read-out: LUCIFERASE INFECTION ASSAY - IC50): 5.28
O=C1Nc2ccccc2/C1=C/c1cccn1-c1ccc(C(F)(F)F)cc1 | > 9.31 | pIC50 (PBLUC_HILL_SLOPE 2.37, PBLUC_R_SQUARED 0.071, read-out: LUCIFERASE INFECTION ASSAY - IC50): 5.24
O=C(NC1CC1)c1ccc(N2CCN(C(c3ccc(F)cc3)c3ccc(F)cc3)CC2)nc1 | > 10 | pIC50 (PBLUC_HILL_SLOPE 2.42, PBLUC_R_SQUARED 0.524, read-out: LUCIFERASE INFECTION ASSAY - IC50): 5.31
COc1cc(C(=O)Nc2ccc(C(=O)NC3CC3)cc2)cc(Cl)c1OC(C)C | > 10 | pIC50 (PBLUC_HILL_SLOPE 2.4, PBLUC_R_SQUARED 0.128, read-out: LUCIFERASE INFECTION ASSAY - IC50): 5.22
Cc1onc(-c2ccccc2Cl)c1C(=O)ON=C1C2CC3CC(C2)CC1C3 | > 8.57 | pIC50 (PBLUC_HILL_SLOPE 2.42, PBLUC_R_SQUARED 0.273, read-out: LUCIFERASE INFECTION ASSAY - IC50): 5.30

SMILES | IC90 [µM] | further results
CN(C)c1ccc(-c2cnn3c(Nc4ccc(Oc5ccccc5)cc4)ccnc23)cc1 | > 7.83 | pIC50 (PBLUC_HILL_SLOPE 2.36, PBLUC_R_SQUARED 0.164, read-out: LUCIFERASE INFECTION ASSAY - IC50): 5.18
Cc1nc(NCCCn2ccnc2)c2c(-c3cccs3)csc2n1 | > 10 | pIC50 (PBLUC_HILL_SLOPE 2.38, PBLUC_R_SQUARED 0.267, read-out: LUCIFERASE INFECTION ASSAY - IC50): 5.19
COc1ccc(C(CNC(=O)Cc2coc3c(C)c(C)ccc23)N(C)C)cc1 (stereo not given) | 3.36 | pIC50 (PBLUC_HILL_SLOPE 2.38, PBLUC_R_SQUARED 0.44, read-out: LUCIFERASE INFECTION ASSAY - IC50): 5.88
Cc1nc(-c2ccc3c(c2)CCN3C(=O)C2(C)Cc3ccccc3C(=O)O2)cs1 (stereo not given) | > 10 | pIC50 (PBLUC_HILL_SLOPE 2.39, PBLUC_R_SQUARED 0.602, read-out: LUCIFERASE INFECTION ASSAY - IC50): 5.35
CCCCC1(COC(=O)c2ccc(C(C)(C)C)cc2)C(=O)N(c2ccccc2)N(c2ccccc2)C1=O | > 6.62 | pIC50 (PBLUC_HILL_SLOPE 2.41, PBLUC_R_SQUARED 0.52, read-out: LUCIFERASE INFECTION ASSAY - IC50): 5.34
CCOc1ccc(NC(=O)c2ccc(F)cc2)cc1S(=O)(=O)N(C)C | > 10 | pIC50 (PBLUC_HILL_SLOPE 2.43, PBLUC_R_SQUARED 0.406, read-out: LUCIFERASE INFECTION ASSAY - IC50): 5.07
CC(C)Cn1c(-c2ccccc2)nc2c(c(=O)c3ccccc3n2C)c1=O | > 9.18 | pIC50 (PBLUC_HILL_SLOPE 2.45, PBLUC_R_SQUARED 0.0531, read-out: LUCIFERASE INFECTION ASSAY - IC50): 5.19
CCn1c(=O)[nH]c(=O)c2cc(C(=O)Nc3ccc(Oc4ccccc4)cc3)cnc21 | > 10 | pIC50 (PBLUC_HILL_SLOPE 2.4, PBLUC_R_SQUARED 0.0614, read-out: LUCIFERASE INFECTION ASSAY - IC50): 5.16
CC1(C(=O)NCc2cccnc2)CCN1Cc1ccccc1Cl (stereo not given) | > 10 | pIC50 (PBLUC_HILL_SLOPE 2.38, PBLUC_R_SQUARED 0.474, read-out: LUCIFERASE INFECTION ASSAY - IC50): 5.37
C=c1c(Nc2cccc(C(F)(F)F)c2)cc(Nc2cccc(C(F)(F)F)c2)c(O)c1=C | > 10 | pIC50 (PBLUC_HILL_SLOPE 2.41, PBLUC_R_SQUARED 0.317, read-out: LUCIFERASE INFECTION ASSAY - IC50): 5.14
CC(C)(C)C(=O)Nc1ccc([N+](=O)[O-])cc1C#N | 4.31 | pIC50 (PBLUC_HILL_SLOPE 2.44, PBLUC_R_SQUARED 0.671, read-out: LUCIFERASE INFECTION ASSAY - IC50): 5.76
Cn1cc(-c2cnc3cnc(-c4ccccc4)cn23)cn1 | 5.95 | pIC50 (PBLUC_HILL_SLOPE 2.38, PBLUC_R_SQUARED 0.622, read-out: LUCIFERASE INFECTION ASSAY - IC50): 5.63
O=c1nc(Nc2ccc(Cl)cc2)[nH]nc1Cc1ccc(Cl)cc1 | 5.05 | pIC50 (PBLUC_HILL_SLOPE 2.36, PBLUC_R_SQUARED 0.336, read-out: LUCIFERASE INFECTION ASSAY - IC50): 5.70
Oc1c(Br)cc(Cl)cc1/C=N/NC(=S)NC1CC1 | > 9.47 | pIC50 (PBLUC_HILL_SLOPE 2.42, PBLUC_R_SQUARED 0.376, read-out: LUCIFERASE INFECTION ASSAY - IC50): 5.38
O=C(CC1S/C(=N\c2ccccn2)NC1=O)Nc1ccc(Cl)cc1 (stereo not given) | > 10 | pIC50 (PBLUC_HILL_SLOPE 2.4, PBLUC_R_SQUARED 0.685, read-out: LUCIFERASE INFECTION ASSAY - IC50): 5.23
S=C1CCc2ccccc2N1Cc1ccccc1 | > 13 | pIC50 (PBLUC_HILL_SLOPE 2.45, PBLUC_R_SQUARED 0.245, read-out: LUCIFERASE INFECTION ASSAY - IC50): < 4.89
CC(=O)c1ccc(NC(=O)c2cc(-c3cc(C)ccc3C)nc3ccccc23)cc1 | > 8.37 | pIC50 (PBLUC_HILL_SLOPE 2.38, PBLUC_R_SQUARED 0.305, read-out: LUCIFERASE INFECTION ASSAY - IC50): 5.34
COc1ccc(C)cc1NC(=O)c1ccc(NC(=O)Nc2ccccc2)s1 | > 10 | pIC50 (PBLUC_HILL_SLOPE 2.41, PBLUC_R_SQUARED 0.229, read-out: LUCIFERASE INFECTION ASSAY - IC50): 5.15
CCOc1ccc(N(C)S(=O)(=O)c2ccc(C)c(C(=O)Nc3nc4ccccc4[nH]3)c2)cc1 | 3.87 | pIC50 (PBLUC_HILL_SLOPE 2.47, PBLUC_R_SQUARED 0.24, read-out: LUCIFERASE INFECTION ASSAY - IC50): 5.80
O=C(Nc1ccc(OC(F)(F)F)cc1)c1cc([N+](=O)[O-])c[nH]c1=O | > 10 | pIC50 (PBLUC_HILL_SLOPE 2.36, PBLUC_R_SQUARED 0.402, read-out: LUCIFERASE INFECTION ASSAY - IC50): 5.25
